Experimental data published in patent publication US7642245B2, “Antibacterial compounds having a (pyrrole carboxamide)-(benzamide)-(imidazole carboxamide) motif” (Oscient Pharmaceuticals Corporation, priority 2002, dated 2010).

Tests used:
[1] = system: E. coli ATCC 25922; assay: MIC, NCCLS broth microdilution; format: cell-based, Escherichia coli; details: G = E. coli ATCC 25922
How it was run: (§1)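 Broth microdilution MIC per NCCLS M7-A4 and M11-A4 for bacteria (MRSA strain for S. aureus ATCC 27660); antifungal MIC per NCCLS M27-T with the Murray 1995 Manual of Clinical Microbiology method. MIC taken as lowest inhibitory concentration.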

[2] = system: E. faecalis ATCC 29212; assay: MIC, NCCLS broth microdilution; format: cell-based, Enterococcus faecalis; details: C = E. faecalis ATCC 29212
How it was run: as §1

[3] = system: B. cereus ATCC 11778; assay: MIC, NCCLS broth microdilution; format: cell-based, Bacillus cereus; details: D = B. cereus ATCC 11778
How it was run: as §1

[4] = system: M. catarrhalis (ATCC 25238); assay: MIC, NCCLS broth microdilution; format: cell-based, Moraxella (now Branhamella) catarrhalis; details: H = M. catarrhalis (ATCC 25238)
How it was run: as §1

[5] = system: S. pneumoniae ATCC 49619; assay: MIC, NCCLS broth microdilution; format: cell-based, Streptococcus pneumoniae; details: E = S. pneumoniae ATCC 49619
How it was run: as §1

[6] = system: S. aureus ATCC 13709; assay: MIC, NCCLS broth microdilution; format: cell-based, Staphylococcus aureus; details: A = S. aureus ATCC 13709 (MSSA)
How it was run: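 Minimal inhibitory concentration determined by NCCLS broth microdilution in microtiter plates per documents M7-A4, M11-A4 and M27-T. S. aureus ATCC 27660 is a methicillin-resistant strain. The antifungal test on C. albicans followed the method recommended in the Manual of Clinical Microbiology (1995).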

[7] = system: S. aureus ATCC 27660; assay: MIC, NCCLS broth microdilution; format: cell-based, Staphylococcus aureus; details: B = S. aureus ATCC 27660 (MRSA)
How it was run: as §1

[8] = system: C. albicans ATCC 38247; assay: MIC, antifungal assay; format: cell-based, Candida albicans; details: F = C. albicans ATCC 38247
How it was run: as §1

Compound	Minimum Inhibitory Concentration (MIC) [1]	Minimum Inhibitory Concentration (MIC) [2]	Minimum Inhibitory Concentration (MIC) [3]	Minimum Inhibitory Concentration (MIC) [4]	Minimum Inhibitory Concentration (MIC) [5]	Minimum Inhibitory Concentration (MIC) [6]	Minimum Inhibitory Concentration (MIC) [7]	Minimum Inhibitory Concentration (MIC) [8]
Cn1cc(NC(=O)c2cc3ccccc3cn2)cc1C(=O)Nc1ccc(C(=O)Nc2cn(C)c(C(=O)NCCNCCCCCO)n2)cc1 [Compound A-33]	+++ (MIC ≦ 4 μg/mL)	+++ (MIC ≦ 4 μg/mL)	+++ (MIC ≦ 4 μg/mL)	>32 µg/mL	+++ (MIC ≦ 4 μg/mL)	+++ (MIC ≦ 4 μg/mL)	+++ (MIC ≦ 4 μg/mL)	>32 µg/mL
Cn1cc(NC(=O)c2cc3ccccc3cn2)cc1C(=O)Nc1ccc(C(=O)Nc2cn(C)c(C(=O)NCCN3CCCCCC3)n2)cc1 [Compound A-24]	>32 µg/mL	+++ (MIC ≦ 4 μg/mL)	+++ (MIC ≦ 4 μg/mL)	+++ (MIC ≦ 4 μg/mL)	+++ (MIC ≦ 4 μg/mL)	+++ (MIC ≦ 4 μg/mL)	+++ (MIC ≦ 4 μg/mL)	++ (4 < MIC < 12 μg/mL)
Cn1cc(NC(=O)c2cc3ccccc3cn2)cc1C(=O)Nc1ccc(C(=O)Nc2cn(C)c(C(=O)NCCN3CCN(CCOC(=O)CNS(=O)(=O)O)CC3)n2)cc1 [Compound A-73]	>32 µg/mL	+++ (MIC ≦ 4 μg/mL)	+++ (MIC ≦ 4 μg/mL)	>32 µg/mL	+++ (MIC ≦ 4 μg/mL)	+++ (MIC ≦ 4 μg/mL)	+++ (MIC ≦ 4 μg/mL)	>32 µg/mL
Cn1cc(NC(=O)c2cc3ccccc3cn2)cc1C(=O)Nc1ccc(C(=O)Nc2cn(C)c(C(=O)NCCNC(CO)CO)n2)cc1 [Compound A-50]	>32 µg/mL	++ (4 < MIC < 12 μg/mL)	+ (12 ≦ MIC ≦ 32 μg/mL)	>32 µg/mL	+++ (MIC ≦ 4 μg/mL)	+++ (MIC ≦ 4 μg/mL)	+++ (MIC ≦ 4 μg/mL)	>32 µg/mL
Cn1cc(NC(=O)c2cc3ccccc3cn2)cc1C(=O)Nc1ccc(C(=O)Nc2cn(C)c(C(=O)NCCN3CCN(CC#N)CC3)n2)cc1 [Compound A-58]	>32 µg/mL	+++ (MIC ≦ 4 μg/mL)	+++ (MIC ≦ 4 μg/mL)	+++ (MIC ≦ 4 μg/mL)	+++ (MIC ≦ 4 μg/mL)	+++ (MIC ≦ 4 μg/mL)	+++ (MIC ≦ 4 μg/mL)	>32 µg/mL
Cn1cc(NC(=O)c2cc3ccccc3cn2)cc1C(=O)Nc1ccc(C(=O)Nc2cn(C)c(C(=O)NCCN3CCC(OC(=O)CNC(=O)OC(C)(C)C)CC3)n2)cc1 [Compound A-66]	>32 µg/mL	+++ (MIC ≦ 4 μg/mL)	+++ (MIC ≦ 4 μg/mL)	+++ (MIC ≦ 4 μg/mL)	+++ (MIC ≦ 4 μg/mL)	+++ (MIC ≦ 4 μg/mL)	+++ (MIC ≦ 4 μg/mL)	>32 µg/mL
Cn1cc(NC(=O)c2cc3ccccc3cn2)cc1C(=O)Nc1ccc(C(=O)Nc2cn(C)c(C(=O)NCCN3CCN(C(=O)CNC(=O)OC(C)(C)C)CC3)n2)cc1 [Compound A-64]	>32 µg/mL	+++ (MIC ≦ 4 μg/mL)	+++ (MIC ≦ 4 μg/mL)	++ (4 < MIC < 12 μg/mL)	+++ (MIC ≦ 4 μg/mL)	+++ (MIC ≦ 4 μg/mL)	+++ (MIC ≦ 4 μg/mL)	>32 µg/mL
Cn1cc(NC(=O)c2cc3ccccc3cn2)cc1C(=O)Nc1ccc(C(=O)Nc2cn(C)c(C(=O)NCCN3CCCCC3CN3CCCC3)n2)cc1 (stereo not drawn) [Compound A-40]	>32 µg/mL	+++ (MIC ≦ 4 μg/mL)	+++ (MIC ≦ 4 μg/mL)	++ (4 < MIC < 12 μg/mL)	+++ (MIC ≦ 4 μg/mL)	+++ (MIC ≦ 4 μg/mL)	+++ (MIC ≦ 4 μg/mL)	>32 µg/mL
C[C@@H]1CN(CCNC(=O)c2nc(NC(=O)c3ccc(NC(=O)c4cc(NC(=O)c5cc6ccccc6cn5)cn4C)cc3)cn2C)C[C@H](C)O1 [Compound A-51]	>32 µg/mL	+++ (MIC ≦ 4 μg/mL)	+++ (MIC ≦ 4 μg/mL)	+++ (MIC ≦ 4 μg/mL)	+++ (MIC ≦ 4 μg/mL)	+++ (MIC ≦ 4 μg/mL)	+++ (MIC ≦ 4 μg/mL)	>32 µg/mL
Cn1cc(NC(=O)c2cc3c(Cl)cccc3cn2)cc1C(=O)Nc1ccc(C(=O)Nc2cn(C)c(C(=O)NCCN3CCC(O)CC3)n2)cc1 [Compound A-9]	++ (4 < MIC < 12 μg/mL)	+++ (MIC ≦ 4 μg/mL)	+++ (MIC ≦ 4 μg/mL)	+ (12 ≦ MIC ≦ 32 μg/mL)	+++ (MIC ≦ 4 μg/mL)	+++ (MIC ≦ 4 μg/mL)	+++ (MIC ≦ 4 μg/mL)	++ (4 < MIC < 12 μg/mL)
Cn1cc(NC(=O)c2cc3ccccc3cn2)cc1C(=O)Nc1ccc(C(=O)Nc2cn(C)c(C(=O)NCCNC3CCCCC3)n2)cc1 [Compound A-35]	>32 µg/mL	+++ (MIC ≦ 4 μg/mL)	+++ (MIC ≦ 4 μg/mL)	++ (4 < MIC < 12 μg/mL)	+++ (MIC ≦ 4 μg/mL)	+++ (MIC ≦ 4 μg/mL)	+++ (MIC ≦ 4 μg/mL)	>32 µg/mL
Cn1cc(NC(=O)c2cc3ccccc3cn2)cc1C(=O)Nc1ccc(C(=O)Nc2cn(C)c(C(=O)NCCN3CCN(C(=O)C4OC(O)C(O)C(O)C4O)CC3)n2)cc1 (stereo not drawn) [Compound A-75]	>32 µg/mL	+++ (MIC ≦ 4 μg/mL)	+++ (MIC ≦ 4 μg/mL)	>32 µg/mL	+++ (MIC ≦ 4 μg/mL)	+++ (MIC ≦ 4 μg/mL)	+++ (MIC ≦ 4 μg/mL)	>32 µg/mL
CC(C)N1CCN(CCNC(=O)c2nc(NC(=O)c3ccc(NC(=O)c4cc(NC(=O)c5cc6ccccc6cn5)cn4C)cc3)cn2C)CC1 [Compound A-15]	>32 µg/mL	+++ (MIC ≦ 4 μg/mL)	+++ (MIC ≦ 4 μg/mL)	+++ (MIC ≦ 4 μg/mL)	+++ (MIC ≦ 4 μg/mL)	+++ (MIC ≦ 4 μg/mL)	+++ (MIC ≦ 4 μg/mL)	>32 µg/mL
Cn1cc(NC(=O)c2cc3ccccc3cn2)cc1C(=O)Nc1ccc(C(=O)Nc2cn(C)c(C(=O)NCCN3CCC(O)C3)n2)cc1 (stereo not drawn) [Compound A-70]	+++ (MIC ≦ 4 μg/mL)	+++ (MIC ≦ 4 μg/mL)	+++ (MIC ≦ 4 μg/mL)	+++ (MIC ≦ 4 μg/mL)	+++ (MIC ≦ 4 μg/mL)	+++ (MIC ≦ 4 μg/mL)	+++ (MIC ≦ 4 μg/mL)	>32 µg/mL
CCN(CCO)CCNC(=O)c1nc(NC(=O)c2ccc(NC(=O)c3cc(NC(=O)c4cc5ccccc5cn4)cn3C)cc2)cn1C [Compound A-32]	>32 µg/mL	+++ (MIC ≦ 4 μg/mL)	+++ (MIC ≦ 4 μg/mL)	+++ (MIC ≦ 4 μg/mL)	+++ (MIC ≦ 4 μg/mL)	+++ (MIC ≦ 4 μg/mL)	+++ (MIC ≦ 4 μg/mL)	>32 µg/mL
